Reference: patent US11352363B1, “Spiropyrrolidine derived antiviral agents” (Enanta Pharmaceuticals, Inc., priority 2020, dated 2022)
Read-outs that look alike come from different tables or passages of the source.

Target: SARS-CoV-2 3CL-protease (Severe acute respiratory syndrome coronavirus 2 (2019-nCoV) (SARS-CoV-2), UniProt P0DTD1)
Test: SARS-CoV-2 3C-like (3CL) protease fluorescence assay (FRET)
Assay type: biochemical

Row | SMILES | IC50 (read-out: FRET IC50) | other results
1 | CC(C)C[C@H](NC(=O)OCc1ccccc1)C(=O)N1C[C@]2(C[C@H]1C#N)C(=O)Nc1ccccc12 [Compound 1] | 100 to 1000 nM | 
2 | N#C[C@@H]1C[C@@]2(CN1C(=O)[C@H](CC1CCC1)NC(=O)OCc1ccccc1)C(=O)Nc1ccccc12 [Compound 2] | < 100 nM | 
3 | CC(C)(C)[C@H](NC(=O)OCc1ccccc1)C(=O)N1C[C@]2(C[C@H]1C#N)C(=O)Nc1ccccc12 [Compound 3] | > 1000 nM | 
4 | N#C[C@@H]1C[C@@]2(CN1C(=O)[C@H](CC1CC1)NC(=O)OCc1ccccc1)C(=O)Nc1ccccc12 [Compound 4] | < 100 nM | 
5 | CC(C)(C)C[C@H](NC(=O)OCc1ccccc1)C(=O)N1C[C@]2(C[C@H]1C#N)C(=O)Nc1ccccc12 [Compound 5] | < 100 nM | 
6 | CC(OC(C)(C)C)[C@H](NC(=O)OCc1ccccc1)C(=O)N1C[C@]2(C[C@H]1C#N)C(=O)Nc1ccccc12 (some centres unmarked) [Compound 6] |  | IC50: > 1000 nM
7 | CC(C)(F)C[C@H](NC(=O)OCc1ccccc1)C(=O)N1C[C@]2(C[C@H]1C#N)C(=O)Nc1ccccc12 [Compound 7] | < 100 nM | 
8 | CC(C)C[C@H](NC(=O)OCC1(c2ccccc2)CC1)C(=O)N1C[C@]2(C[C@H]1C#N)C(=O)Nc1ccccc12 [Compound 8] | < 100 nM | 
9 | CC(C)C[C@H](NC(=O)OC(C)(C)c1cccc(Cl)c1)C(=O)N1C[C@]2(C[C@H]1C#N)C(=O)Nc1ccccc12 [Compound 9] | 100 to 1000 nM | 
10 | CC(C)(C)OC[C@H](NC(=O)OCc1ccccc1)C(=O)N1C[C@]2(C[C@H]1C#N)C(=O)Nc1ccccc12 [Compound 10] | 100 to 1000 nM | 
11 | COc1cccc2[nH]c(C(=O)N[C@@H](CC(C)C)C(=O)N3C[C@]4(C[C@H]3C#N)C(=O)Nc3ccccc34)cc12 [Compound 11] | < 100 nM | 
12 | COc1cccc2[nH]c(C(=O)N[C@H](CC(C)C)C(=O)N3C[C@]4(C[C@H]3C#N)C(=O)Nc3ccccc34)cc12 [Compound 12] | > 1000 nM | 
13 | COc1cccc2[nH]c(C(=O)N[C@@H](CC3CCCCC3)C(=O)N3C[C@]4(C[C@H]3C#N)C(=O)Nc3ccccc34)cc12 [Compound 13] | < 100 nM | 
14 | COc1cccc2[nH]c(C(=O)N[C@H](CC3CCCCC3)C(=O)N3C[C@]4(C[C@H]3C#N)C(=O)Nc3ccccc34)cc12 [Compound 14] | 100 to 1000 nM | 
15 | COc1cccc2[nH]c(C(=O)N[C@@H](CC(C)(C)C)C(=O)N3C[C@]4(C[C@H]3C#N)C(=O)Nc3ccccc34)cc12 [Compound 15] | < 100 nM | 
16 | COc1cccc2[nH]c(C(=O)N[C@H](CC(C)(C)C)C(=O)N3C[C@]4(C[C@H]3C#N)C(=O)Nc3ccccc34)cc12 [Compound 16] | 100 to 1000 nM | 
17 | COc1cccc2[nH]c(C(=O)N[C@@H](CC3CCC3)C(=O)N3C[C@]4(C[C@H]3C#N)C(=O)Nc3ccccc34)cc12 [Compound 17] | < 100 nM | 
18 | CC(C)(C)[C@H](NC(=O)c1cc2c(F)cccc2[nH]1)C(=O)N1C[C@]2(C[C@H]1C#N)C(=O)Nc1ccccc12 [Compound 18] | > 1000 nM | 
19 | COc1cccc2[nH]c(C(=O)N[C@@H](CC3CC3)C(=O)N3C[C@]4(C[C@H]3C#N)C(=O)Nc3ccccc34)cc12 [Compound 19] | < 100 nM | 
20 | CC(C)(C)C[C@H](NC(=O)c1cc2c(F)c(F)ccc2[nH]1)C(=O)N1C[C@]2(C[C@H]1C#N)C(=O)Nc1ccccc12 [Compound 20] | < 100 nM | 

Row | SMILES | IC50 (read-out: FRET IC50) | other results
21 | COc1cccc2[nH]c(C(=O)N[C@H](C(=O)N3C[C@]4(C[C@H]3C#N)C(=O)Nc3ccccc34)C(C)OC(C)(C)C)cc12 (some centres unmarked) [Compound 22] |  | IC50: 100 to 1000 nM
22 | COc1cccc2[nH]c(C(=O)N[C@@H](CC(C)C)C(=O)N3C[C@]4(C[C@H]3C=O)C(=O)Nc3ccccc34)cc12 [Compound 23] | < 100 nM | 
23 | CC(C)C[C@H](NC(=O)c1cc2c(F)cccc2[nH]1)C(=O)N1C[C@]2(C[C@H]1C=O)C(=O)Nc1ccccc12 [Compound 25] | < 100 nM | 
24 | COc1cc(C#N)cc2[nH]c(C(=O)N[C@@H](CC(C)C)C(=O)N3C[C@]4(C[C@H]3C#N)C(=O)Nc3ccccc34)cc12 [Compound 26] |  | IC50 (recombinant SARS-CoV-2 3CL-protease 10 nM, 30 min preincubation, run in duplicate, read-out: FRET IC50): 100 to 1000 nM
25 | CC(C)C[C@H](NC(=O)c1cc2c(F)cccc2[nH]1)C(=O)N1C[C@]2(C[C@H]1C#N)C(=O)Nc1ccccc12 [Compound 27] | < 100 nM | 
26 | CC(C)C[C@H](NC(=O)c1cc2c(F)cccc2[nH]1)C(=O)N1C[C@]2(C[C@H]1C#N)C(=O)Nc1c(F)cccc12 [Compound 28] | < 100 nM | 
27 | COc1cccc2[nH]c(C(=O)N[C@@H](CC(C)C)C(=O)N3C[C@]4(C[C@H]3C(O)S(=O)(=O)O)C(=O)Nc3ccccc34)cc12 (some centres unmarked) [Compound 29] | < 100 nM | 
28 | CC(C)C[C@@H](C(=O)N1C[C@]2(C[C@H]1C(O)S(=O)(=O)O)C(=O)Nc1ccccc12)N(C)C(=O)c1cc2c(F)cccc2[nH]1 (some centres unmarked) [Compound 30] | < 100 nM | 
29 | COc1cccc2[nH]c(C(=O)N[C@@H](CC(C)C)C(=O)N3C[C@]4(C[C@H]3C(=O)C(=O)NC3CC3)C(=O)Nc3ccccc34)cc12 [Compound 31] | 100 to 1000 nM | 
30 | COc1cccc2[nH]c(C(=O)N[C@@H](CC(C)C)C(=O)N3C[C@]4(C[C@H]3C(=O)C(=O)NCc3ccccc3)C(=O)Nc3ccccc34)cc12 [Compound 32] | < 100 nM | 
31 | COc1cccc2[nH]c(C(=O)N[C@@H](CC(C)C)C(=O)N3C[C@]4(C[C@H]3C(=O)C(=O)NC3CCCCC3)C(=O)Nc3ccccc34)cc12 [Compound 33] | < 100 nM | 
32 | COc1cccc2[nH]c(C(=O)N(C)[C@@H](CC(C)C)C(=O)N3C[C@]4(C[C@H]3C(=O)C(=O)NC3CCCCC3)C(=O)Nc3ccccc34)cc12 [Compound 34] | > 1000 nM | 
33 | CC(C)C[C@@H](C(=O)N1C[C@]2(C[C@H]1C(=O)C(=O)NC1CCCCC1)C(=O)Nc1ccccc12)N(C)C(=O)c1cc2c(F)cccc2[nH]1 [Compound 35] | > 1000 nM | 
34 | CC(C)C[C@@H](C(=O)N1C[C@]2(C[C@H]1C(=O)C(=O)NC1CC1)C(=O)Nc1ccccc12)N(C)C(=O)c1cc2c(F)cccc2[nH]1 [Compound 36] | 100 to 1000 nM | 
35 | COc1cccc2[nH]c(C(=O)N[C@@H](CC(C)C)C(=O)N3C[C@]4(C[C@H]3C(=O)O)C(=O)Nc3ccccc34)cc12 [Compound 37] | 100 to 1000 nM | 
36 | COc1cccc2[nH]c(C(=O)N[C@@H](CC(C)C)C(=O)N3C[C@]4(C[C@H]3C(=O)NS(=O)(=O)C3CC3)C(=O)Nc3ccccc34)cc12 [Compound 38] | > 1000 nM | 
37 | CC(C)C[C@@H](C(=O)N1C[C@]2(C[C@H]1C#N)C(=O)Nc1ccccc12)N(C)C(=O)OCc1ccccc1 [Compound 39] | < 100 nM | 
38 | CN(C(=O)OCc1ccccc1)[C@@H](CC(C)(C)C)C(=O)N1C[C@]2(C[C@H]1C#N)C(=O)Nc1ccccc12 [Compound 40] | < 100 nM | 
39 | COc1cccc2[nH]c(C(=O)N(C)[C@@H](CC(C)C)C(=O)N3C[C@]4(C[C@H]3C#N)C(=O)Nc3ccccc34)cc12 [Compound 42] | < 100 nM | 
40 | CC(C)C[C@@H](C(=O)N1C[C@]2(C[C@H]1C#N)C(=O)Nc1ccccc12)N(C)C(=O)c1sc2cc(F)ccc2c1Cl [Compound 43] | 100 to 1000 nM | 

Row | SMILES | IC50 (read-out: FRET IC50) | other results
41 | CC(C)C[C@@H](C(=O)N1C[C@]2(C[C@H]1C#N)C(=O)Nc1ccccc12)N(C)C(=O)c1cc2c(F)cccc2[nH]1 [Compound 44] | < 100 nM | 
42 | CC(C)C[C@@H](C(=O)N1C[C@]2(C[C@H]1C#N)C(=O)Nc1ccccc12)N(C)C(=O)c1cc2c(C3CC3)cccc2[nH]1 [Compound 45] | < 100 nM | 
43 | CC(C)C[C@@H](C(=O)N1C[C@]2(C[C@H]1C#N)C(=O)Nc1ccccc12)N(C)C(=O)c1cc2c(F)cc(F)cc2[nH]1 [Compound 46] | < 100 nM | 
44 | Cc1c(C(=O)N(C)[C@@H](CC(C)C)C(=O)N2C[C@]3(C[C@H]2C#N)C(=O)Nc2ccccc23)[nH]c2cc(F)cc(F)c12 [Compound 47] | < 100 nM | 
45 | CC(C)C[C@@H](C(=O)N1C[C@]2(C[C@H]1C#N)C(=O)Nc1ccccc12)N(C)C(=O)c1[nH]c2ccccc2c1-c1ccccc1 [Compound 48] | 100 to 1000 nM | 
46 | CC(C)C[C@@H](C(=O)N1C[C@]2(C[C@H]1C#N)C(=O)Nc1ccccc12)N(C)C(=O)c1cc2c(OC(F)(F)F)cccc2[nH]1 [Compound 49] | < 100 nM | 
47 | CC(C)C[C@@H](C(=O)N1C[C@]2(C[C@H]1C#N)C(=O)Nc1ccccc12)N(C)C(=O)c1cc2ccc(F)cc2[nH]1 [Compound 50] | < 100 nM | 
48 | CC(C)C[C@@H](C(=O)N1C[C@]2(C[C@H]1C#N)C(=O)Nc1ccccc12)N(C)C(=O)c1cc2c(OC(F)F)cccc2[nH]1 [Compound 51] | < 100 nM | 
49 | COc1cccc2c1cc(C(=O)N(C)[C@@H](CC(C)C)C(=O)N1C[C@]3(C[C@H]1C#N)C(=O)Nc1ccccc13)n2C [Compound 53] | < 100 nM | 
50 | CC(C)C[C@@H](C(=O)N1C[C@]2(C[C@H]1C#N)C(=O)Nc1ccccc12)N(C)C(=O)c1cc2cc(-c3ccccc3)ccc2[nH]1 [Compound 54] | < 100 nM | 
51 | CC(C)C[C@@H](C(=O)N1C[C@]2(C[C@H]1C#N)C(=O)Nc1ccccc12)N(C)C(=O)c1cc2ccc(-c3ccccc3)cc2[nH]1 [Compound 55] | < 100 nM | 
52 | CC(C)C[C@@H](C(=O)N1C[C@]2(C[C@H]1C#N)C(=O)Nc1ccccc12)N(C)C(=O)c1cc2cc(C(C)(C)C)ccc2[nH]1 [Compound 56] | < 100 nM | 
53 | CC(C)C[C@@H](C(=O)N1C[C@]2(C[C@H]1C#N)C(=O)Nc1ccccc12)N(C)C(=O)c1cc2ccc(C(C)(C)C)cc2[nH]1 [Compound 57] | < 100 nM | 
54 | COc1ccc(Cl)c(C(=O)N(C)[C@@H](CC(C)C)C(=O)N2C[C@]3(C[C@H]2C#N)C(=O)Nc2ccccc23)c1 [Compound 58] | < 100 nM | 
55 | CC(C)C[C@@H](C(=O)N1C[C@]2(C[C@H]1C#N)C(=O)Nc1ccccc12)N(C)C(=O)c1ncccc1Cl [Compound 59] | < 100 nM | 
56 | CC(C)C[C@@H](C(=O)N1C[C@]2(C[C@H]1C#N)C(=O)Nc1ccccc12)N(C)C(=O)c1cncc(C#N)c1 [Compound 60] | < 100 nM | 
57 | CC(C)C[C@@H](C(=O)N1C[C@]2(C[C@H]1C#N)C(=O)Nc1ccccc12)N(C)C(=O)c1ccc(F)cc1Cl [Compound 61] | < 100 nM | 
58 | CC(C)C[C@@H](C(=O)N1C[C@]2(C[C@H]1C#N)C(=O)Nc1ccccc12)N(C)C(=O)c1cc(F)ccc1Cl [Compound 62] | < 100 nM | 
59 | CC(C)C[C@@H](C(=O)N1C[C@]2(C[C@H]1C#N)C(=O)Nc1ccccc12)N(C)C(=O)c1ccc(F)c(Cl)c1 [Compound 63] | < 100 nM | 
